Measurements: US11981671B2, “Bicyclic pyrazolyl amines as CDK2 inhibitors” (Incyte Corporation, priority 2021, dated 2024)

These molecules were tested against CDK2/Cyclin E1 (Homo sapiens (Human), UniProt P24941) (assay: CDK2/Cyclin E1 HTRF enzyme activity assay). Conditions: 1 mM ATP; CDK2/Cyclin E1 0.25 nM; 60 minutes at room temperature.
Type: biochemical
Method: Example A. CDK2/Cyclin E1 HTRF Enzyme Activity Assay
CDK2/Cyclin E1 enzyme activity assays utilize full-length human CDK2 co-expressed as N-terminal GST-tagged protein with FLAG-Cyclin E1 in a baculovirus expression system (Carna Product Number 04-165). Assays were conducted in white 384-well polystyrene plates in a final reaction volume of 8 μL. CDK2/Cyclin E1 (0.25 nM) was incubated with the compounds of the Examples (40 nL serially diluted in DMSO) in the presence of ATP (50 μM or 1 mM) and 50 nM ULight™-labeled eIF4E-binding protein 1 (THR37/46) peptide (PerkinElmer) in assay buffer (containing 50 mM HEPES pH 7.5, 1 mM EGTA, 10 mM MgCl2, 2 mM DTT, 0.05 mg/mL BSA, and 0.01% Tween 20) for 60 minutes at room temperature. The reactions were stopped by the addition of EDTA and Europium-labeled anti-phospho-4E-BP1 antibody (PerkinElmer), for a final concentration of 15 mM and 1.5 nM, respectively. HTRF signals were read after 1 hour at room temperature on a PHERAstar FS plate reader (BMG Labtech). Data was analyzed with IDBS XLFit and GraphPad Prism 5.0 software using a three or four parameter dose response curve to determine IC50 for each compound.
In the case of `Cc1nccc(Nc2nc3c(-c4ccc5c(c4)oc(=O)n5C)c(-c4cn[nH]c4)ccn3n2)c1C` [Example 1, 6-(2-((2,3-Dimethylpyridin-4-yl)amino)-7-(1H-pyrazol-4-yl)-[1,2,4]triazolo[1,5-a]pyridin-8-yl)-3-methylbenzo[d]oxazol-2(3H)-one], the IC50 is reported as ≤ 10 nM. For `Cc1nccc(Nc2nc3c(-c4cc(C#N)ccc4F)c(-c4cn[nH]c4)ccn3n2)c1C` [Example 2, 3-(2-((2,3-Dimethylpyridin-4-yl)amino)-7-(1H-pyrazol-4-yl)-[1,2,4]triazolo[1,5-a]pyridin-8-yl)-4-fluorobenzonitrile], the IC50 was ≤ 10 nM. In the case of `Cc1nccc(Nc2nc3c(-c4ccc5c(cnn5C)c4)c(-c4cn[nH]c4)ccn3n2)c1C` [Example 3, N-(2,3-Dimethylpyridin-4-yl)-8-(1-methyl-1H-indazol-5-yl)-7-(1H-pyrazol-4-yl)-[1,2,4]triazolo[1,5-a]pyridin-2-amine], the IC50 is reported as ≤ 10 nM. `Cc1nccc(Nc2nc3c(-c4ccc(CO)cc4F)c(-c4cn[nH]c4)ccn3n2)c1C` [Example 4, (4-(2-((2,3-Dimethylpyridin-4-yl)amino)-7-(1H-pyrazol-4-yl)-[1,2,4]triazolo[1,5-a]pyridin-8-yl)-3-fluorophenyl)methanol] was tested, and the IC50 was ≤ 10 nM. With `Cc1nccc(Nc2nc3c(-c4ccc(CN5CCCC5)c(F)c4)c(-c4cn[nH]c4)ccn3n2)c1C` [Example 5, N-(2,3-Dimethylpyridin-4-yl)-8-(3-fluoro-4-(pyrrolidin-1-ylmethyl)phenyl)-7-(1H-pyrazol-4-yl)-[1,2,4]triazolo[1,5-a]pyridin-2-amine] the IC50 was ≤ 10 nM. For `Cc1cc(-c2c(-c3cn[nH]c3)ccn3nc(Nc4ccnc(C)c4C)nc23)c(F)cn1` [Example 6, N-(2,3-Dimethylpyridin-4-yl)-8-(5-fluoro-2-methylpyridin-4-yl)-7-(1H-pyrazol-4-yl)-[1,2,4]triazolo[1,5-a]pyridin-2-amine], the IC50 was ≤ 10 nM. For `Cc1cc(-c2c(-c3cn[nH]c3)ccn3nc(Nc4ccnc5ccccc45)nc23)c(F)cc1C#N` [Example 7, 4-(7-(1H-Pyrazol-4-yl)-2-(quinolin-4-ylamino)-[1,2,4]triazolo[1,5-a]pyridin-8-yl)-5-fluoro-2-methylbenzonitrile], the IC50 was ≤ 10 nM. For `Cc1c(Nc2nc3c(OC(C)C)c(-c4cn[nH]c4)ncn3n2)ccnc1CN(C)C` [Example 8, N-(2-((Dimethylamino)methyl)-3-methylpyridin-4-yl)-8-isopropoxy-7-(1H-pyrazol-4-yl)-[1,2,4]triazolo[1,5-c]pyrimidin-2-amine], the IC50 was ≤ 10 nM. For `Cc1c(Nc2nc3c(OC(C)C)c(-c4cn[nH]c4)ncn3n2)ccnc1CO` [Example 9, (4-((8-Isopropoxy-7-(1H-pyrazol-4-yl)-[1,2,4]triazolo[1,5-c]pyrimidin-2-yl)amino)-3-methylpyridin-2-yl)methanol], the IC50 was ≤ 10 nM. `Cc1nccc(Nc2nc3c(OC(C)C)c(-c4cn[nH]c4)ncn3n2)c1C` [Example 10, N-(2,3-Dimethylpyridin-4-yl)-8-isopropoxy-7-(1H-pyrazol-4-yl)-[1,2,4]triazolo[1,5-c]pyrimidin-2-amine] was tested, and the IC50 was ≤ 10 nM. In the case of `Cc1c(Nc2nc3c(OC(C)C)c(-c4cn[nH]c4)ncn3n2)ccc2nccn12` [Example 11, 8-Isopropoxy-N-(5-methylimidazo[1,2-a]pyridin-6-yl)-7-(1H-pyrazol-4-yl)-[1,2,4]triazolo[1,5-c]pyrimidin-2-amine], the IC50 is reported as ≤ 10 nM. With `CC(C)Oc1c(-c2cn[nH]c2)ncn2nc(Nc3ccc(S(C)(=O)=O)cc3F)nc12` [Example 12, N-(2-Fluoro-4-(methylsulfonyl)phenyl)-8-isopropoxy-7-(1H-pyrazol-4-yl)-[1,2,4]triazolo[1,5-c]pyrimidin-2-amine] the IC50 was ≤ 10 nM.
